# Experimental data published in patent publication US8614247B2, “Methods for preventing, attenuating or treating pulmonary hypertension using a serotonin transporter inhibitor, and pharmaceutical compositions for the treatment thereof” (Institut National de la Sante et de la Recherche Medicale, priority 2003, dated 2013).
# Experiments:
# [1] = target: 5-HTT (Rattus norvegicus, UniProt P31652); conditions: cited from earlier work
# [2] = tested on: human pulmonary artery smooth muscle cells (PA-SMCs); assay: 5-HT-induced proliferation of human PA-SMCs ([3H]thymidine incorporation); type: cell-based; conditions: cells in 0.2% FCS; for 5-HT-induced increase in [3H]thymidine incorporation (mitogenic response to 5-HT): drug at 10^−5 M, added before 5-HT
# Method: Effect of 5-HT on the Proliferation of Human Pulmonary Artery Smooth Muscle Cells (PA-SMCs)
# The methods used for the culture and the characterization of human PA-SMCs have been previously described (Eddahibi, Humbert et al. 2001). In brief, PA-SMCs were obtained from patients undergoing lung resection for cancer. They were seeded in 24-well plates at a density of 5×10^4 cells/well and allowed to adhere in DMEM supplemented with 15% fœtal calf serum (FCS). Cells were then subjected to 48 h of growth arrest in medium containing only 0.2% FCS before being incubated in DMEM supplemented with 0.2% FCS, 0.6 mM of ascorbic acid, 0.1 mM of iproniazid (a monoamine oxidase inhibitor), 0.6 μCi/mL of [^3H]thymidine, with or without 5-HT (10^−8 to 10^−6 M). […] Each of these drugs was added 20 min before 5-HT. After incubation for 24 hours, cells were washed twice with PBS, treated with ice-cold 10% trichloroacetic acid (1 ml/well), and dissolved in 0.1 N NaOH (0.5 ml/well). The incorporated radioactivity was counted and reported as cpm per well.
# [3] = tested on: rat lung SMC and lung fibroblasts; conditions: cited from earlier work
# [4] = tested on: mice exposed to acute hypoxia; assay: Hemodynamic response (RVSP) of normoxic mice to acute hypoxia; type: in vivo, mice (C57BL6/J); conditions: two-day pretreatment; for pressure (RVSP) response to acute hypoxia: antagonists 2 mg/kg/day i.p., compared with vehicle-treated controls
# Method: All experiments were performed using adult male mice (C57BL6/J, 8 weeks old) in conformity with the institutional guidelines that are in compliance with national and international laws and policies.
# Mice were anaesthetized with ketamine (60 mg/kg, i.p) and xylazine (10 mg/kg, i.p). The trachea was cannulated, and the lungs were ventilated with room air at a tidal volume of 0.2 ml and a rate of 90 breaths per minute. Systemic arterial pressure was determined by catheterization of the carotid artery. A 26-gauge needle was then introduced percutaneously into the right ventricle via the subxyphoid approach. Right ventricular systolic pressure (RVSP) was measured using a Gould P10 EZ pressure transducer connected to pressure modules and a Gould TA 550 recorder. RVSP and heart rate were recorded first while the animal was ventilated with room air and then after 5 min of ventilation with hypoxic gas mixture (8% O2, 92% N2). […] If the heart rate fell below 300 bpm, measurements were excluded from analysis.
# To investigate the effects of 5-HTT inhibition and/or 5-HT receptor blockade on acute hypoxic vasoconstriction, nine groups of mice (6-7 in each group) were studied. […] The last group consisted of control animals that received distilled water by gavage. The treatments were performed for two days and acute hypoxic vasoconstriction was measured on the following day one hour after the last treatment.
# [5] = tested on: rats; conditions: Keegan et al. 2001; cited from earlier work
# [6] = tested on: mice in normoxia; assay: Physiological parameters during normoxia after treatment; type: in vivo, mice (C57BL6/J); conditions: control mice 88±7 mmHg
# [7] = tested on: mice exposed to chronic hypoxia; type: in vivo, mice (C57BL6/J); conditions: for muscularization of distal pulmonary vessels: vs control mice under similar hypoxic conditions; for hypoxia-induced increase in RVSP: 2-week hypoxia (10% O2), daily treatment: citalopram, fluoxetine 10 mg/kg/day, ketanserin 2 mg/kg/day, GR127935 2 or 10 mg/kg/day, vs vehicle
# Method: All experiments were performed using adult male mice (C57BL6/J, 8 weeks old) in conformity with the institutional guidelines that are in compliance with national and international laws and policies. […] To establish the hypoxic environment, the chamber was flushed with a mixture of room air and nitrogen, and the gas was recirculated. The chamber environment was monitored using an oxygen analyzer (Servomex OA150, Crowborough, England). Carbon dioxide was removed by soda lime granules, and excess humidity was prevented by cooling the recirculation circuit. The chamber temperature was maintained at 22-24° C. The chamber was opened every other day for 1 hour to clean the cages and replenish food and water supplies. Normoxic mice were kept in the same room, with the same light-dark cycle. […] After incision of the abdomen and diaphragm, a 26-gauge needle connected to a pressure transducer was inserted into the right ventricle, and RVSP was recorded immediately. Blood was then sampled for hematocrit determination. […] The right ventricle (RV) was dissected from the left ventricle+septum (LV+S), and these dissected samples were weighed. The lungs were fixed by intratracheal infusion of 4% aqueous buffered formalin at a pressure of 23 cm H2O. The entire specimen was immersed in a bath of the same fixative for one week. A midsagittal slice of the right lung including the apical, azygous and diaphragmatic lobes was processed for paraffin embedding. Sections (5 μm thick) were cut for light microscopy and stained with hematoxylin-phloxin-saffron and orcein-picroindigo-carmine. In each mouse, a total of 50-60 […] vessels accompanying either alveolar ducts or alveoli were analyzed by an observer blinded to treatment. Each vessel was categorized as nonmuscular (no evidence of any vessel wall muscularization), partially muscular (SMCs identifiable in less than three-fourths of the vessel circumference), or fully muscular (SMCs in more than three-fourths of the vessel circumference). […] The percentage of pulmonary vessels in each muscularization category was determined by dividing the number of vessels in that category by the total number counted in the same experimental group. […] The animals were treated once a day during the two-week exposure to hypoxia.
# [8] = tested on: experimental hypoxic PH; conditions: previous studies (Eddahibi, Raffestin et al. 1998); cited from earlier work
# [9] = 2-week chronic hypoxia, daily treatment
# Chain of 5-HTT (P31652 whole entry): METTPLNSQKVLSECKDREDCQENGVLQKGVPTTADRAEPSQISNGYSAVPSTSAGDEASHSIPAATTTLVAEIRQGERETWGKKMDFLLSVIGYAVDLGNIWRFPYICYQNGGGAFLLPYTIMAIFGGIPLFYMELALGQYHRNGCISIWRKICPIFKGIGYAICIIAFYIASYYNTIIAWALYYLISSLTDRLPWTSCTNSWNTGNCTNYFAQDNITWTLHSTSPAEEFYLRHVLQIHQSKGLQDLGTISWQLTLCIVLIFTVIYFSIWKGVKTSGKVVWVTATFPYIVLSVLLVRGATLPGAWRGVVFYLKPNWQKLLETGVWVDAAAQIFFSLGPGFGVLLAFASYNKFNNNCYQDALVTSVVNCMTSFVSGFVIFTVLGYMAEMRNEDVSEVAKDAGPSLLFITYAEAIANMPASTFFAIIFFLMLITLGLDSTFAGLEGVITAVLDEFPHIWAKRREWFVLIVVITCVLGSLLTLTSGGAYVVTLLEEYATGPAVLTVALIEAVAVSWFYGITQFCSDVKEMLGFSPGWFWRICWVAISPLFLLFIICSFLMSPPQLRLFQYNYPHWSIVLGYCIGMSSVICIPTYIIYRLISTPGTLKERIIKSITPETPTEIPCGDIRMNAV
smiles,measurement,setting,value
NC1=NCC(c2ccccc2)O1 (stereo not shown) [a minorex],5-HTT substrate,[1],5-HTT substrates
"NCCc1c[nH]c2ccc(O)cc12 [5-HT, 5-hydroxytryptamine]",[3H]thymidine incorporation,[2]; 5-HT 10^−8-10^−6 M,concentration-dependent increase
CCNC(C)Cc1cccc(C(F)(F)F)c1 (stereo not shown) [fenfluramine],mitogenic effect,[3],mitogenic
"COc1ccc(NC(=O)c2ccc(-c3ccc(-c4noc(C)n4)cc3C)cc2)cc1N1CCN(C)CC1 [GR127935, 2′-methyl-4′-(5-methyl-[1,2,4]oxadiazol-3-yl)-biphenyl-4-carboxylic acid [4-methoxy-3-(4-methyl-piperazine-1-yl)-phenyl]amide]",pressure (RVSP) response to acute hypoxia,[4],abolished the pressure response to hypoxia
same,protection against development of PH,[5],partial protection
same,5-HT-induced increase in [3H]thymidine incorporation (mitogenic response to 5-HT),[2],not affected
same,Mean systemic arterial pressure,[6],85±6 mmHg
same,muscularization of distal pulmonary vessels,[7]; [9],did not affect
same,right ventricular hypertrophy (RV/LV+S ratio),"[7]; 2-week chronic hypoxia, daily treatment, vs hypoxic vehicle-treated mice (41.5±1.5%)",did not differ
same,hypoxia-induced increase in RVSP,[7],did not differ
"Cl.Cn1ccc2cc3c(cc21)CCN3C(=O)Nc1cccnc1 [SB 206553, N-3-pyridinyl-3,5-dihydro-5-methyl-benzo[1,2-b:4,5-b′]dipyrrole-1(2H)-carboxamide hydrochloride]",5-HT-induced increase in [3H]thymidine incorporation (mitogenic response to 5-HT),[2],not affected
CN(C)CCCC1(c2ccc(F)cc2)OCc2cc(C#N)ccc21 (stereo not shown) [citalopram],Mean systemic arterial pressure,[6],87±7 mmHg
CCN[C@@H](C)Cc1cccc(C(F)(F)F)c1 [dexfenfluramine],development of experimental hypoxic PH,[8],not to attenuate
O=C(c1ccc(F)cc1)C1CCN(CCn2c(=O)[nH]c3ccccc3c2=O)CC1 [ketanserin],pressure (RVSP) response to acute hypoxia,[4],altered neither the response to acute hypoxia
same,5-HT-induced increase in [3H]thymidine incorporation (mitogenic response to 5-HT),[2],not affected
same,Mean systemic arterial pressure,[6],83±4 mmHg
CNCCC(Oc1ccc(C(F)(F)F)cc1)c1ccccc1 (stereo not shown) [fluoxetine],baseline RVSP,"[4]; 10 mg/kg/day by gavage, normoxic ventilation",did not alter
same,5-HT-induced increase in [3H]thymidine incorporation (mitogenic response to 5-HT),[2],completely abolished
same,Mean systemic arterial pressure,[6],86±5 mmHg
same,muscularization of distal pulmonary vessels,[7]; [9],markedly attenuated
same,hypoxia-induced increase in RVSP,[7],significantly attenuated
CC(C)(N)Cc1ccc(Cl)cc1 [chlorphentermine],5-HTT substrate,[1],5-HTT substrates
